In patent US10174067B2, “Type of cytidine derivative and application thereof” (priority 2014, dated 2019):
Marks after values point to notes of the source that are not given here.

Assays:
[1] = Procedure, shortened: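 Test compounds formulated in ethanol:Cremophor EL:saline (5:5:90), vehicle alone as control, in HCT-116 subcutaneous xenografts in female Balb/c nudes (6/group, start 60–150 mm^3). Weight measured three times weekly, tumour weight at end; unpaired t-test on Mean±SEM data.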
[2] = test system: HCT-116 colon cancer xenografts; assay: Tumor growth inhibition of HCT-116 colon cancer xenografts in tumor-bearing nude mice (tumor volume, TGI %, RTV, T/C %); type: in vivo, Balb/c Nude mice; conditions: for T/C % (relative tumor proliferation rate): dosage 400 mg/kg (G10-G16 study);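 as to T/C % (relative tumor proliferation rate): control C is the vehicle-treated model control group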
Procedure, shortened: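 Tumors in HCT-116-inoculated nude mice were sized three times weekly by diameter, with volume V=3/4π(D/2)^3. Significance set at P<0.05.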

[3] = Day 0, G10-G16 groups, single IP 400 mg/kg
[4] = Day 0, G10-G16 groups, single IP 400 mg/kg, Mean±SEM
[5] = Day 1, G10-G16 groups, single IP 400 mg/kg, Mean±SEM
[6] = Day 2, G10-G16 groups, single IP 400 mg/kg, Mean±SEM
[7] = Day 4, G10-G16 groups, single IP 400 mg/kg, Mean±SEM
[8] = Day 7, G10-G16 groups, single IP 400 mg/kg, Mean±SEM
[9] = Day 9, G10-G16 groups, single IP 400 mg/kg, Mean±SEM
[10] = Day 11, G10-G16 groups, single IP 400 mg/kg, Mean±SEM
[11] = Day 14, G10-G16 groups, single IP 400 mg/kg, Mean±SEM
[12] = Day 16, G10-G16 groups, single IP 400 mg/kg, Mean±SEM
[13] = Day 18, G10-G16 groups, single IP 400 mg/kg, Mean±SEM
[14] = Day 21, G10-G16 groups, single IP 400 mg/kg, Mean±SEM
[15] = Day 23, G10-G16 groups, single IP 400 mg/kg, Mean±SEM
[16] = Day 25, G10-G16 groups, single IP 400 mg/kg, Mean±SEM
[17] = Day 28, G10-G16 groups, single IP 400 mg/kg, Mean±SEM
[18] = Day 30, G10-G16 groups, single IP 400 mg/kg, Mean±SEM

For `CCCCOC(=O)Nc1nc(=O)n([C@@H]2O[C@H](COC(=O)Cn3cnc([N+](=O)[O-])c3)C(O)C2(F)F)cc1I` (stereo partly shown) [Compound G12], the “Weight change rate, Day 0” value [1, 3] was 0.00%, the “Weight of mice, Day 0” value [1, 4] was 20.05 ± 0.26 g and the “Weight change rate, Day 1” value [1, 5] was −2.59 ± 1.08%. For the same molecule, the “Weight of mice, Day 1” value [1, 5] was 19.53 ± 0.36 g, the “Weight change rate, Day 2” value [1, 6] was −3.15 ± 0.93% and the “Weight of mice, Day 2” value [1, 6] was 19.42 ± 0.29 g. The “Weight change rate, Day 4” value [1, 7] was −1.54 ± 1.11%, the “Weight of mice, Day 4” value [1, 7] was 19.73 ± 0.25 g and the “Weight change rate, Day 7” value [1, 8] was −0.93 ± 1.50 %. For the same molecule, the “Weight of mice, Day 7” value [1, 8] was 19.85 ± 0.21 g, the “Weight change rate, Day 9” value [1, 9] was 2.11 ± 2.28% and the “Weight of mice, Day 9” value [1, 9] was 20.45 ± 0.32 g. The “Weight change rate, Day 11” value [1, 10] was 3.34 ± 2.25%, the “Weight of mice, Day 11” value [1, 10] was 20.70 ± 0.36 g and the “Weight change rate, Day 14” value [1, 11] was 1.76 ± 2.11 %. The “Weight of mice, Day 14” value [1, 11] was 20.38 ± 0.32 g, the “Weight change rate, Day 16” value [1, 12] was 2.56 ± 1.91 % and the “Weight of mice, Day 16” value [1, 12] was 20.55 ± 0.34 g. For the same molecule, the “Weight change rate, Day 18” value [1, 13] was 5.03 ± 2.23 %, the “Weight of mice, Day 18” value [1, 13] was 21.05 ± 0.46 g and the “Weight change rate, Day 21” value [1, 14] was 3.68 ± 2.13 %. The “Weight of mice, Day 21” value [1, 14] was 20.78 ± 0.48 g, the “Day 22 Mortality” value ([1]; Day 22, single IP dose (mg/kg)) was 0% and the “Weight change rate, Day 23” value [1, 15] was 4.37 ± 1.91 %. For the same molecule, the “Weight of mice, Day 23” value [1, 15] was 20.92 ± 0.38 g, the “Weight change rate, Day 25” value [1, 16] was 6.69 ± 1.87 % and the “Weight of mice, Day 25” value [1, 16] was 21.38 ± 0.39 g. For the same molecule, the “Weight change rate, Day 28” value [1, 17] was 4.43 ± 0.69%, the “Weight of mice, Day 28” value [1, 17] was 20.68 ± 0.31 g and the “Weight change rate, Day 30” value [1, 18] was 5.67 ± 0.86%. For the same molecule, the “Weight of mice, Day 30” value [1, 18] was 20.93 ± 0.43 g, the clinical symptoms ([1]; after single IP dose, compared with model control group) was “no significant differences in clinical symptoms” and the “Day 0 (RTV)” value [2, 3] was 1.00. For the same molecule, the “Tumor volume, Day 0” value [2, 4] was 70.49 ± 13.19* mm^3, the “T/C % (relative tumor proliferation rate)” value ([2]; Day 0) was 0.00% and the “Day 1 (TGI %)” value ([2]; Day 1, G10-G16 groups, single IP 400 mg/kg) was 62.26%. The “Day 1 (RTV)” value [2, 5] was 1.12 ± 0.22, the “Tumor volume, Day 1” value [2, 5] was 68.13 ± 11.02** mm^3 and the “T/C % (relative tumor proliferation rate)” value ([2]; Day 1) was 66.60%. For the same molecule, the “Day 2 (TGI %)” value ([2]; Day 2, G10-G16 groups, single IP 400 mg/kg) was 63.70%, the “Day 2 (RTV)” value [2, 6] was 1.28 ± 0.22 and the “Tumor volume, Day 2” value [2, 6] was 80.54 ± 15.99** mm^3. For the same molecule, the “T/C % (relative tumor proliferation rate)” value ([2]; Day 2) was 61.57%, the “Day 4 (TGI %)” value ([2]; Day 4, G10-G16 groups, single IP 400 mg/kg) was 58.48% and the “Day 4 (RTV)” value [2, 7] was 1.80 ± 0.23. The “Tumor volume, Day 4” value [2, 7] was 123.31 ± 27.06** mm^3, the “T/C % (relative tumor proliferation rate)” value ([2]; Day 4) was 65.24% and the “Day 7 (TGI %)” value ([2]; Day 7, G10-G16 groups, single IP 400 mg/kg) was 51.81%. For the same molecule, the “Day 7 (RTV)” value [2, 8] was 3.07 ± 0.38, the “Tumor volume, Day 7” value [2, 8] was 208.41 ± 44.11** mm^3 and the “T/C % (relative tumor proliferation rate)” value ([2]; Day 7) was 75.07%. For the same molecule, the “Day 9 (TGI %)” value ([2]; Day 9, G10-G16 groups, single IP 400 mg/kg) was 49.03%, the “Day 9 (RTV)” value [2, 9] was 4.37 ± 0.50 and the “Tumor volume, Day 9” value [2, 9] was 300.88 ± 62.43* mm^3. The “T/C % (relative tumor proliferation rate)” value ([2]; Day 9) was 77.79%, the “Day 11 (TGI %)” value ([2]; Day 11, G10-G16 groups, single IP 400 mg/kg) was 51.33% and the “Day 11 (RTV)” value [2, 10] was 7.11 ± 1.07. The “Tumor volume, Day 11” value [2, 10] was 475.09 ± 105.26** mm^3, the “T/C % (relative tumor proliferation rate)” value ([2]; Day 11) was 77.05% and the “Day 14 (TGI %)” value ([2]; Day 14, G10-G16 groups, single IP 400 mg/kg) was 39.61%. For the same molecule, the “Day 14 (RTV)” value [2, 11] was 13.07 ± 2.18, the “Tumor volume, Day 14” value [2, 11] was 869.70 ± 190.68* mm^3 and the “T/C % (relative tumor proliferation rate)” value ([2]; Day 14) was 94.48%. The “Day 16 (TGI %)” value ([2]; Day 16, G10-G16 groups, single IP 400 mg/kg) was 30.00%, the “Day 16 (RTV)” value [2, 12] was 19.45 ± 2.82 and the “Tumor volume, Day 16” value [2, 12] was 1267.85 ± 225.13 mm^3. For the same molecule, the “T/C % (relative tumor proliferation rate)” value ([2]; Day 16) was 112.70%, the “Day 18 (TGI %)” value ([2]; Day 18, G10-G16 groups, single IP 400 mg/kg) was 19.24% and the “Day 18 (RTV)” value [2, 13] was 26.31 ± 5.44. The “Tumor volume, Day 18” value [2, 13] was 1613.91 ± 242.24 mm^3, the “T/C % (relative tumor proliferation rate)” value ([2]; Day 18) was 137.82% and the “Day 21 (TGI %)” value ([2]; Day 21, G10-G16 groups, single IP 400 mg/kg) was 21.29%. The “Day 21 (RTV)” value [2, 14] was 32.69 ± 8.02, the “Tumor volume, Day 21” value [2, 14] was 1924.26 ± 257.46 mm^3 and the “T/C % (relative tumor proliferation rate)” value ([2]; Day 21) was 139.66%. The “Day 23 (TGI %)” value ([2]; Day 23, G10-G16 groups, single IP 400 mg/kg) was 17.69%, the “Day 23 (RTV)” value [2, 15] was 33.10 ± 7.89 and the “Tumor volume, Day 23” value [2, 15] was 1943.90 ± 242.19 mm^3. The “T/C % (relative tumor proliferation rate)” value ([2]; Day 23) was 167.43%, the “Day 25 (TGI %)” value ([2]; Day 25, G10-G16 groups, single IP 400 mg/kg) was 17.26% and the “Day 25 (RTV)” value [2, 16] was 36.50 ± 8.74. For the same molecule, the “Tumor volume, Day 25” value [2, 16] was 2136.52 ± 258.58 mm^3, the “T/C % (relative tumor proliferation rate)” value ([2]; Day 25) was 168.82% and the “Day 28 (TGI %)” value ([2]; Day 28, G10-G16 groups, single IP 400 mg/kg) was 24.12%. For the same molecule, the “Day 28 (RTV)” value [2, 17] was 43.13 ± 14.83, the “Tumor volume, Day 28” value [2, 17] was 2040.64 ± 281.98 mm^3 and the “T/C % (relative tumor proliferation rate)” value ([2]; Day 28) was 204.13%. The “Day 30 (TGI %)” value ([2]; Day 30, G10-G16 groups, single IP 400 mg/kg) was 16.67%, the “Day 30 (RTV)” value [2, 18] was 49.17 ± 15.89 and the “Tumor volume, Day 30” value [2, 18] was 2338.31 ± 292.39 mm^3. The “T/C % (relative tumor proliferation rate)” value ([2]; Day 30) was 198.17%.
